From US9133484B2, “Transfection agent” (3-D MATRIX, LTD., priority 2008, dated 2015)

Legend:
[1] = Cytotoxicity, MTT cell proliferation assay (Cell Titer 96 Aqueous One Solution); format: cell-based; conditions: human, U87MG malignant glioma cells
Description: Cytotoxicity was evaluated using cultured human cells for a peptide surfactant and two types of currently widely used cationic liposome-mediated gene transfer agents.
<Materials> • *Added Substances • 1. Peptide surfactant (sequence: Ac-AAAAAAK-NH2(SEQ ID NO: 17), Celtek) • 2. Lipofectamine 2000 (Invitrogen) • 3. siFECTOR (B-Bridge International, Inc.) • *Cells • Cultured human malignant glioma cells (U87MG, acquired from ATCC) • *MTT Assay Reagent (for cell proliferation assay) • Cell Titer 96 Aqueous One Solution Cell Proliferation Assay Kit (Promega)
The cells were seeded in a 96-well plate in accordance with the recommended ATCC protocol (cell density: 2×10^4/well) followed by incubating overnight. The medium was replaced with fresh medium and the substances were added (final concentrations: 0.0005, 0.001, 0.005, 0.01, 0.05, 0.1, 0.5, 1, 5, 10, 25, 50, 75, 100, 250 and 500 μg/ml). The cells were cultured for 24 hours. After culturing, Cell Titer 96 Aqueous One Solution was added (20 μl/well) followed by measuring optical absorbance at 495 nm with a plate reader 4 hours later to quantify the number of viable cells.

MMP-2 mRNA = assay: RNA interference effect by RT-PCR (MMP-2 target, beta-actin internal standard); format: cell-based, human; conditions: siRNA 50 nM/peptide surfactant 20 μg/ml, 8 hours, U87MG, T98G, U251MG (FIGS. 4 to 6)
Description: siRNA introduced into cells by peptide surfactant was confirmed to have RNA interference ability by RT-PCR.
<Materials> • *Peptide surfactant • Sequence: Ac-AAAAAAK-NH2 (SEQ ID NO: 17) (Celtek) • *Cells • Three types of cultured human malignant glioma cells (U87MG, T98G, U251MG, acquired from ATCC)
1×10^5 cells were seeded into a 24-well plate and cultured overnight in accordance with the ATCC standard protocol. After removing the medium, the following solutions were added to the final concentrations indicated below followed by culturing for 8 hours under the same culturing conditions as previously described. • (1) Blank control (medium only) • (2) Random oligo siRNA (Dharmacon)/peptide surfactant 20 μg/ml • (3) siRNA 50 nM • (4) Peptide surfactant 20 μg/ml • (5) siRNA 50 nM/peptide surfactant 20 μg/ml
The siRNA was reverse-transcribed to cDNA using the Taqman Gene Expression Cell-to-Ct Kit (Applied Biosystems). Quantitative analysis was carried out using the Applied Biosystems 7500 Real-Time PCR System using MMP-2 for the target and beta-actin for the internal standard by Gene Expression Assay (Applied Biosystems).

[2] = test system: cultured human malignant glioma cells (U87MG, T98G, U251MG); assay: Introduction of Cy3-labeled siRNA into cells, fluorescence microscopy; format: cell-based; conditions: siRNA 50 nM plus peptide surfactant 20 μg/ml, 8 hours, all three types of cells
Description: The introduction of siRNA into cells by peptide surfactant was confirmed by microscopic observation of fluorescent-labeled siRNA.
(§1) <Materials> • *Peptide surfactant • Sequence: Ac-AAAAAAK-NH2 (SEQ ID NO: 17) (Celtek) • *siRNA • siRNA/MMP-2 (Santa Cruz) • *siRNA fluorescent labeling reagent • Label IT Cy-3 Labeling Kit (Mirus) • *Cells • Three types of cultured human malignant glioma cells (U87MG, T98G, U251MG, each acquired from ATCC)
siRNA/MMP-2 was labeled with Cy3 using the siRNA fluorescent labeling reagent in accordance with the Mirus protocol. 5000 of the cells were seeded into a chambered slide glass in accordance with the ATCC protocol and incubated for overnight. After removing the medium, siRNA to a final concentration of 50 nM and peptide surfactant to a final concentration of 20 μg/ml were added to 1 ml of medium followed by culturing for 8 hours. In a control group, only siRNA was cultured at a final concentration of 50 nM in 1 ml of medium.

[3] = test system: cultured human malignant glioma cells (U87MG, T98G, U251MG); assay: Relationship between peptide surfactant concentration and siRNA introduction efficiency (RFU); format: cell-based
Description: The manner in which the efficiency of introduction of siRNA into cells is dependent on concentration of peptide surfactant was examined by microscopic observation of fluorescent-labeled siRNA.
as §1, with “(Celtek) • *Peptide surfactant concentrations: • 0, 0.5, 1.0, 5.0, 10.0, 20.0, 25.0 μg/ml” for “(Celtek)”, “U251MG,” for “U251MG, each”
siRNA/MMP-2 was labeled with Cy3 using the siRNA fluorescent labeling reagent in accordance with the Minis standard protocol. The labeled siRNA was then mixed with the peptide surfactant. siRNA to a final concentration of 50 nM and peptide surfactant to final concentrations of 0, 0.5, 1, 5, 10, 20 and 25 μg/ml were administered to 1×10^5 cells seeded in a 24-well plate containing medium at 1 ml/well, followed by culturing for 8 hours. After washing the wells with PBS, the cells were recovered and transferred to a 96-well plate where they were measured for optical absorbance.

[4] = test system: cultured human malignant glioma cells (U87MG, T98G, U251MG); assay: Time-based changes in amount of siRNA introduced into cells (RFU); format: cell-based; conditions: siRNA 50 nM, peptide surfactant 20 μg/ml (FIG. 2)
Description: Time-based changes in the amounts of siRNA introduced into cells by peptide surfactant were examined by microscopic observation of fluorescent-labeled siRNA.
<Materials> • *Peptide surfactant • Sequence: Ac-AAAAAAK-NH2 (SEQ ID NO: 17) (Celtek) • *Peptide surfactant concentrations: • 0, 0.5, 1.0, 5.0, 10.0, 20.0, 25.0 μg/ml • *siRNA • siRNA/MMP-2 (Santa Cruz) • siRNA fluorescent labeling reagent • Label IT Cy-3 Labeling Kit (Mirus) • *Cells • Three types of cultured human malignant glioma cells (U87MG, T98G, U251MG, acquired from ATCC)
siRNA/MMP-2 was labeled with Cy3 using the siRNA fluorescent labeling reagent in accordance with the Minis standard protocol. The labeled siRNA was then mixed with the peptide surfactant. siRNA to a final concentration of 50 nM and peptide surfactant to a final concentration of 20 μg/ml were administered to 1×10^5 cells seeded in a 24-well plate containing medium at 1 ml/well, followed by incubating for 0.5, 1, 2, 4, 8, 16 and 24 hours. After washing the wells with PBS, the cells were recovered and transferred to a 96-well plate where they were measured for optical absorbance.

Substance: Ac-AAAAAAK-NH2 [peptide surfactant, Ac-AAAAAAK-NH2]
- CC50 at 24 h [1]: 286 µg/mL
- Expression of MMP-2 mRNA (MMP-2 mRNA): significantly inhibited
- Uptake of Cy3-labeled siRNA [2]: confirmed
- RFU versus peptide surfactant concentration (introduction of siRNA into cells) ([3]; 0-25 μg/ml peptide surfactant, siRNA 50 nM, 8 hours, all three cell types (FIG. 3)): increases in RFU in proportion to increases in concentration
- concentration at which dose-dependent increases in RFU weakened ([3]; Y98G cells, siRNA 50 nM, 8 hours): ≥ 10 µg/mL
- introduction of siRNA into cells ([3]; peptide surfactant 20 μg/ml for 8 hours (with results of Example 3)): adequately and significantly result in introduction of siRNA into cells
- relative fluorescence units (RFU), siRNA incorporated into cells ([4]; culturing for 1 to 8 hours): increased nearly proportionately
- RFU levels ([4]; culturing for longer than 8 hours): essentially reached a plateau
